Data on 3 compounds can be found in PMC4774911, “Biochemical Screening of Five Protein Kinases from Plasmodium falciparum against 14,000 Cell-Active Compounds” (PLoS ONE, 2016).

SMILES strings stand for the structures. Values joined by “and” are separate entries in the source; they are usually repeats but may differ in a detail not shown here. Identical values can stand only once.

Among the targets are YES1 (Homo sapiens, UniProt P07947); RIPK2 (Homo sapiens, UniProt O43353); STK39 (Homo sapiens, UniProt Q9UEW8); PRKCQ (Homo sapiens, UniProt Q04759); BUB1 (Homo sapiens, UniProt O43683); FER (Homo sapiens, UniProt P16591); CSNK1E (Homo sapiens, UniProt P49674); WEE1 (Homo sapiens, UniProt P30291); MAP2K1 (Homo sapiens, UniProt Q02750); FYN (Homo sapiens, UniProt P06241).
Assay in all cases: biochemical
Set-up in all cases: endogenous in cells; host or cells: K562 cell extract; species or system K562 (extract); replicate k of n = 2 (each experiment ID is one independent experiment; two experiment IDs per compound)
Holding throughout (conditions): read-out: KDapp

Another assay deals with T1, STK17A (Homo sapiens, UniProt Q9UEE5).
T1 sequence (Q9UEE5 1-414): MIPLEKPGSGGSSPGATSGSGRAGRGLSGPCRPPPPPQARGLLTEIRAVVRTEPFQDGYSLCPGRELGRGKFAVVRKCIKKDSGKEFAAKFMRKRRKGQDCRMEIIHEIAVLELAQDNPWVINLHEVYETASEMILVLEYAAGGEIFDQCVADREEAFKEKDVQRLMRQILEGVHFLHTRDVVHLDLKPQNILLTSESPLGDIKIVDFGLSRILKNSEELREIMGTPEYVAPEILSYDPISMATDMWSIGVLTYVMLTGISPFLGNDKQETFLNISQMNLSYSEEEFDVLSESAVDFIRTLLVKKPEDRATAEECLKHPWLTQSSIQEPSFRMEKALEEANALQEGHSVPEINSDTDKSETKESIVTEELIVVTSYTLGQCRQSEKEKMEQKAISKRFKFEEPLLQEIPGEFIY

The target of a further assay is T2, MAP2K5 (Homo sapiens, UniProt Q13163).
T2 sequence (Q13163 1-448): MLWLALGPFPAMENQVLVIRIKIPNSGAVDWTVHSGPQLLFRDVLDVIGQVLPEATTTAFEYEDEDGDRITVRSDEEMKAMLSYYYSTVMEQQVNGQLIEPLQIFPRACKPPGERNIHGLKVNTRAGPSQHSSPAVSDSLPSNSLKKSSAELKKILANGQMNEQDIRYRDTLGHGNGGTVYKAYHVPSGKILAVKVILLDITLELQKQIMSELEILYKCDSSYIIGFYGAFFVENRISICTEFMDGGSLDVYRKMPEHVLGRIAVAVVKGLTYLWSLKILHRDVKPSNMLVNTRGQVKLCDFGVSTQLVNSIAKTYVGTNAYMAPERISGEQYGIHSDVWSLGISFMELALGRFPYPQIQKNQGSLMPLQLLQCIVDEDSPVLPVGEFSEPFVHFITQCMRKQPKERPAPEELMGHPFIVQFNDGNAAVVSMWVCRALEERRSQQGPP

Sequence of CSNK1E (P49674 whole entry): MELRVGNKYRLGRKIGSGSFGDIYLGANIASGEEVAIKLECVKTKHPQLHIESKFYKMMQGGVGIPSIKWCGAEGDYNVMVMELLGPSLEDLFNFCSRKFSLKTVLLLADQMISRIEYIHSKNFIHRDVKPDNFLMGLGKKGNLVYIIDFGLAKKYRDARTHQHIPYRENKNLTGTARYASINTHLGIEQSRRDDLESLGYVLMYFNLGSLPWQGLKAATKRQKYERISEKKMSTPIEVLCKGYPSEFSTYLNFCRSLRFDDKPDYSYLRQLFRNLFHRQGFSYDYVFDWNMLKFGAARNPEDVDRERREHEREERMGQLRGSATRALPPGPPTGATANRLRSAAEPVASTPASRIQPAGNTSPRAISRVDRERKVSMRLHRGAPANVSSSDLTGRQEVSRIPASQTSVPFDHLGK
Sequence of BUB1 (O43683 whole entry): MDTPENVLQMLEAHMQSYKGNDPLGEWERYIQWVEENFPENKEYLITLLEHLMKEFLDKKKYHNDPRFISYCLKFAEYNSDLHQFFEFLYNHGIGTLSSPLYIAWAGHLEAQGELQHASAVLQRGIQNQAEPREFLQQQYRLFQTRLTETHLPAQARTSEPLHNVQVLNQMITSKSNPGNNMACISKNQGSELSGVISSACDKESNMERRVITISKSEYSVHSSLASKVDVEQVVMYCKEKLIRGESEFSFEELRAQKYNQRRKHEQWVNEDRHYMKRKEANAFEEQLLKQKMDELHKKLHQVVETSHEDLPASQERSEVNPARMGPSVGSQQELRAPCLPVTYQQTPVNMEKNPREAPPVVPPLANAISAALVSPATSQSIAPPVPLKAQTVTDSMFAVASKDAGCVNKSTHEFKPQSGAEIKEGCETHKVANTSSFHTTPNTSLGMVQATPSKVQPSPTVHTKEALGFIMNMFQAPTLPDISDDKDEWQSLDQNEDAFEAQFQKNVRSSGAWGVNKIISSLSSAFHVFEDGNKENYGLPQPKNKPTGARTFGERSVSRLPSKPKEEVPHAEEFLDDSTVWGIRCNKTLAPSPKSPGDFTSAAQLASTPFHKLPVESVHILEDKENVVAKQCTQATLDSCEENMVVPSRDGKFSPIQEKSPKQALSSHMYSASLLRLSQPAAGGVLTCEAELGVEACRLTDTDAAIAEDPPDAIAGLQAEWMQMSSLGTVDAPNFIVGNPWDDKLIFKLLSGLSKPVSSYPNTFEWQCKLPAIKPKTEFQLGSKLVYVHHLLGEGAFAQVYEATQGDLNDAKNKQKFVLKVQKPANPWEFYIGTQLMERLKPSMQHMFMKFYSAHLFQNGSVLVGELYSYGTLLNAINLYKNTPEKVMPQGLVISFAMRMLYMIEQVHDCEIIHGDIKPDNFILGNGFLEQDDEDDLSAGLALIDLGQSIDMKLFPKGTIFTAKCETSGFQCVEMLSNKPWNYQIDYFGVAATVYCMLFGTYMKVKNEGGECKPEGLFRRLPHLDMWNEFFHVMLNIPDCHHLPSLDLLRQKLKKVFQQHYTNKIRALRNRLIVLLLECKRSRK
Sequence of MAP2K1 (Q02750 whole entry): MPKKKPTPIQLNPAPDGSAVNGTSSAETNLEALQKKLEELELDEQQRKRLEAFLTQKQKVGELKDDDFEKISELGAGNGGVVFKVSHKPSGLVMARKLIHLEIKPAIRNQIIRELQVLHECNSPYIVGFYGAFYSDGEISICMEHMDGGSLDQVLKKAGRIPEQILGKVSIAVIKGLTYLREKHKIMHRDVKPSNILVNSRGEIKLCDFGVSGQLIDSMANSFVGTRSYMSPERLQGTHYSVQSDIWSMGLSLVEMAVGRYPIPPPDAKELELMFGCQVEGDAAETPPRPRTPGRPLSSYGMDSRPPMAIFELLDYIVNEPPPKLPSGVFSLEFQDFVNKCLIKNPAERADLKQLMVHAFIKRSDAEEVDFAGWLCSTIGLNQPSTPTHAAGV
Sequence of WEE1 (P30291 whole entry): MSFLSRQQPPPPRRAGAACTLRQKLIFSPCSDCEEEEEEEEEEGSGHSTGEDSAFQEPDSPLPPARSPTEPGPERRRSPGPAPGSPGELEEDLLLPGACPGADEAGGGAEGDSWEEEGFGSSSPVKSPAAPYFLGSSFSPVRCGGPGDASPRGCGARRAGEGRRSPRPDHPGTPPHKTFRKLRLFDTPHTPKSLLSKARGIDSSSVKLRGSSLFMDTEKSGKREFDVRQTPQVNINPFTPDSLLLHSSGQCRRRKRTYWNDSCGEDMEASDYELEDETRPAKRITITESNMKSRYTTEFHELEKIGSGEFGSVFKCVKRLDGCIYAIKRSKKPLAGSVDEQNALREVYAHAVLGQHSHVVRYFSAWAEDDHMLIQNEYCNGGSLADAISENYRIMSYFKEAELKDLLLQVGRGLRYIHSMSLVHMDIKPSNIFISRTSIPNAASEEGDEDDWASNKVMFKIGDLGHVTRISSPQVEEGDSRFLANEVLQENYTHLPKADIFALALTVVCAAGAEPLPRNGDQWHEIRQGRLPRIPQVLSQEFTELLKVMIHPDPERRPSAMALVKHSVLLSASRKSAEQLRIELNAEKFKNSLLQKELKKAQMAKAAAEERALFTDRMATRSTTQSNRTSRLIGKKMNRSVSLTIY
Sequence of RIPK2 (O43353 whole entry): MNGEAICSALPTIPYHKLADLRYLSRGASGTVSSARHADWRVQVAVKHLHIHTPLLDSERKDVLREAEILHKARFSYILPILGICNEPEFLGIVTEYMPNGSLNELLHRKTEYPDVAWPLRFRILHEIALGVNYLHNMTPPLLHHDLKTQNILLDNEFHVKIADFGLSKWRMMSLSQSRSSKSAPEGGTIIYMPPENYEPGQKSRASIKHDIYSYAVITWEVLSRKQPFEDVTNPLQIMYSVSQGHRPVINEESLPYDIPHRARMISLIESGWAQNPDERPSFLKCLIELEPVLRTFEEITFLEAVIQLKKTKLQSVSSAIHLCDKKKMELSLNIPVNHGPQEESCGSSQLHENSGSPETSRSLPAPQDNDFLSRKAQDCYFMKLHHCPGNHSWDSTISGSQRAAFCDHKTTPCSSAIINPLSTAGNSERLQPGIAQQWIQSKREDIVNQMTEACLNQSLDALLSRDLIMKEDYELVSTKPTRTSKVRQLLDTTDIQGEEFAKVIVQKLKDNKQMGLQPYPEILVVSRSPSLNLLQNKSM
Sequence of PRKCQ (Q04759 whole entry): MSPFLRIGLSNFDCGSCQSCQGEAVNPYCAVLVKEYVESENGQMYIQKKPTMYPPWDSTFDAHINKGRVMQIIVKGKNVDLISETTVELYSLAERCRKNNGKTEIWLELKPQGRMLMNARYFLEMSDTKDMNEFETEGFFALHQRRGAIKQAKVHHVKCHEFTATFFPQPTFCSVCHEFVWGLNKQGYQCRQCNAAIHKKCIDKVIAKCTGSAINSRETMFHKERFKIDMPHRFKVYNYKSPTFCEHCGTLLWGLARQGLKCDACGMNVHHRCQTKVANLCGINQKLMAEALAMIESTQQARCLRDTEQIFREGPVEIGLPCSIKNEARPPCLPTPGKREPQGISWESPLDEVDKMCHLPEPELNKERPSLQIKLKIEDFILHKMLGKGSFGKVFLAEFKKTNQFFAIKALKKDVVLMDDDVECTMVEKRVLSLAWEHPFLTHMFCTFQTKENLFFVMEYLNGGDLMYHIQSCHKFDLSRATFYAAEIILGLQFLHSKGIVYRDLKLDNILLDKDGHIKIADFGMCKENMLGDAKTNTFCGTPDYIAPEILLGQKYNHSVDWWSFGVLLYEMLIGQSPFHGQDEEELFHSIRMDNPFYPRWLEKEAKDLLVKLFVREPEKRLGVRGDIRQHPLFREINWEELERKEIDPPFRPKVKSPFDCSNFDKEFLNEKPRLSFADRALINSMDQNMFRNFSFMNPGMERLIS
Sequence of FER (P16591 whole entry): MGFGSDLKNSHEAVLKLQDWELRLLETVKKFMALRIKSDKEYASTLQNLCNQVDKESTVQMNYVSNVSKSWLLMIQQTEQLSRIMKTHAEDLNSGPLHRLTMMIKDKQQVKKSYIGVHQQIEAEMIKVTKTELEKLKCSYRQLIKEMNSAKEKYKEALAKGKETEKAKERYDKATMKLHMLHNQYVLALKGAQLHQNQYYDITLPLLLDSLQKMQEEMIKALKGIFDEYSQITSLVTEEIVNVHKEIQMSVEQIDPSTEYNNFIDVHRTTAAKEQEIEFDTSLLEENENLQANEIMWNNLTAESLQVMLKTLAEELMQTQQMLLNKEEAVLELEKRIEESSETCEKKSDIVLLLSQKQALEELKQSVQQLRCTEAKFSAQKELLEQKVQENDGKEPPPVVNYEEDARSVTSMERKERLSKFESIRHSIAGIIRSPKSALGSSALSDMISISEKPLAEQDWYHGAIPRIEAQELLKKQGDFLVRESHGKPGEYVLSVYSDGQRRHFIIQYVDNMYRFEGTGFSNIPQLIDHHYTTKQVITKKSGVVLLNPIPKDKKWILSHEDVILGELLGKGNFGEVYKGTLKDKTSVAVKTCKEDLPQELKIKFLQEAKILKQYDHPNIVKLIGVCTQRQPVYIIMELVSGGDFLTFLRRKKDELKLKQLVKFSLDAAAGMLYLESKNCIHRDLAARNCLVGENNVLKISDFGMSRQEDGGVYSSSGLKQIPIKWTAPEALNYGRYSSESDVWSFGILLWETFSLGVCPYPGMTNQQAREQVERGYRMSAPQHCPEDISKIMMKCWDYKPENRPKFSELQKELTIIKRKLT

For the compound `CN1CCN(c2ccc(Nc3ncc(C#N)c(Nc4ccccc4C(N)=O)n3)cc2)CC1.Cl` [TCMDC-134116], the Kd at YES1 is 40.6 nM and 50.7 nM; on STK17A, 109 nM; at RIPK2, 273 nM; on STK39 it was 58 nM; at PRKCQ, 858 nM and 650 nM; on BUB1, 127 nM and 110 nM. Also, the Kd is 79.3 nM and 75.7 nM on FER; 1100 nM and 2810 nM on CSNK1E; 17.3 nM and 16.9 nM at WEE1; 1630 nM and 1450 nM at MAP2K1; 218 nM and 283 nM at MAP2K5; 107 nM and 85.4 nM at FYN.
For `Cl.NCC1(c2nc(-c3ccc(Cl)c(O)c3)c(-c3ccncc3)[nH]2)CCCCC1` [TCMDC-141154], the Kd is 1490 nM and 2600 nM at YES1; 14.5 nM and 17.5 nM at RIPK2; 786 nM and 1000 nM at PRKCQ; 82.5 nM and 58.4 nM at BUB1; 226 nM on CSNK1E; 8760 nM on MAP2K1. Moreover, the Kd on MAP2K5 was 479 nM; at FYN, 67.6 nM and 60.5 nM.
Turning to `CN(C)CC(O)COc1ccc(Nc2ncc([N+](=O)[O-])c(Nc3ccccc3O)n2)cc1.O=C(O)C(F)(F)F` (stereo not drawn) [TCMDC-141399], the Kd was 2550 nM at STK17A; 4760 nM at STK39; 335 nM and 292 nM at FER; 209 nM on WEE1.
